Biological target: T1, M2 receptor (Homo sapiens, UniProt P08172)
T1 sequence (P08172 1-466): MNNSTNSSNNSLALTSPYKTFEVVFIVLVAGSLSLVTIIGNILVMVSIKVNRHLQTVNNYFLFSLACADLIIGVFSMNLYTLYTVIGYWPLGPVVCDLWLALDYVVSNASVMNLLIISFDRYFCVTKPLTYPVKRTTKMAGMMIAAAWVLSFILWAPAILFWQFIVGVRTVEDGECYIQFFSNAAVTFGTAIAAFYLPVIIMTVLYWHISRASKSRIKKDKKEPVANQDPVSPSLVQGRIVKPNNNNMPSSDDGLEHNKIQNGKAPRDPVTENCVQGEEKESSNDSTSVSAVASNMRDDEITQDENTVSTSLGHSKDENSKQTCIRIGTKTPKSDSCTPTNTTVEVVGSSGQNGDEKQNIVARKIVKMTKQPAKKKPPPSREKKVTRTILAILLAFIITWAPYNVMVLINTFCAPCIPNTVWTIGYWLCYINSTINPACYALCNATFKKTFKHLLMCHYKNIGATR
Test: BRET real-time monitoring of G-protein activation via M2 in HEK293T/17 cells
Format: cell-based
Parameters: expressed in transfected cells; host or cells: HEK293T/17 cells, transient transfection
Settings: for Activation of Gαi/o and Gα15 types: saturating concentration (100 μM; 1 mM for JB-12-2, JB-13-1)
Method: HE/K293T17 cells were obtained from The Global Bioresource Center ATCC (Manassas, VA, USA). Cells were grown in 100 mm petri dishes in Dulbecco’s modified Eagle’s medium (DMEM) supplemented with 10% fetal bovine serum (FBS), MEM non-essential amino acids, 1 mM sodium pyruvate, and antibiotics (100 units/ml penicillin and 100 μg/ml streptomycin) at 37 °C in a humidified incubator containing 5% CO2[41]. Transfection was performed according to Masuho et al.[41]. Culture dishes (3.5 cm) were coated by incubation for 10 min at 37 °C with 1 ml of Matrigel solution [approximately 10 μg/ml of growth factor-reduced Matrigel (BD biosciences; LOT: 2278001) in culture medium]. For transfections, cells were seeded in the 3.5 cm dishes containing the Matrigel solution at a density of 1.7 × 10^6 cells/dish. Four hours later, the cells were transfected with the appropriate expression constructs (total of 5 μg DNA per dish) with the reagents PLUS (5 μl/dish) and Lipofectamine LTX (Thermo Fisher Scientific; LOT: 2640614) (6 μl/dish). The cells were transfected with the Venus 156-239-Gβ1 (0.21 μg), Venus 1–155-Gγ2 (0.21 μg), and masGRK3ct-Nluc (0.21 μg) constructs in addition to the different amounts of constructs for the M2 receptor and Gα of interest. Gα14 subunit was co-transfected with Ric-8A chaperone (0.21 μg). Cells were cotransfected with a pcDNA3.1 construct encoding the catalytic subunit of pertussis toxin (PTX-S1) (0.21 μg) and constructs encoding Gα15, Gα14, Gα11, Gαq to ensure that the small BRET signals were not contaminated by the possible recruitment of endogenous Gαi/o proteins. The empty vector pcDNA3.1 was used to normalize the amount of DNA in each transfection.
To examine the activation of G-protein signalling in live cells, agonist-dependent cellular measurements of BRET between Venus-Gβ1γ2 and masGRK3ct-Nluc were performed as described by Masuho et al.[41]. […]. Cells were harvested by centrifugation at 500×g for 5 min and were resuspended in BRET buffer. About 50,000 to 100,000 cells per well were distributed in 96-well flat-bottomed white microplates (Greiner Bio-One) in a volume of 25 µl. 25 µl of 2× luciferase substrate: Nano-Glo™ luciferase assay substrate (Promega; LOT: 0000527335) dissolved in 250 volumes of BRET buffer was added. BRET measurements were made with a microplate reader (POLARstar Omega, BMG Labtech) equipped with two emission photomultiplier tubes, which enabled the detection of two emissions simultaneously with the highest possible resolution of 20 ms per data point. All measurements were performed at room temperature. The BRET signal was determined by calculating the ratio of the light emitted by Venus-Gβ1γ2 (535 nm with a 30 nm band path width) to the light emitted by masGRK3ct-Nluc (475 nm with a 30 nm band path width). The average baseline value (basal BRET ratio) recorded before stimulation of cells with an agonist was subtracted from the experimental BRET signal values to obtain the ΔBRET ratio.
The ΔBRET ratio from real-time monitoring of G-protein activation was fitted using monophasic association according to Eq. 9.9 Y=Beq×(1-exp-Kobs×x where y is the ΔBRET ratio of the light emitted by Venus-Gβ1γ2 (535/30) to the light emitted by masGRK3ct-Nluc (475/30). Beq is Y-value at the equilibrium expressing the maximal amplitude of ΔBRET ratio, x is time and Kobs is the observed rate of Gα subunit activation.

Structure (SMILES) | Maximal amplitude at Gi1 as % of GoA (CBC 100 μM) | Activation of Gαi/o and Gα15 types | Activation of GoA and GoB, % of CBC magnitude (saturating concentration (JR-6 100 μM, JB-12-2 1 mM))
C[N+](C)(C)CCOC(N)=O [CBC, carbachol, reference compound] | ~ 25% | activated all tested Gαi/o types and promiscuous Gα15 | –
c1csc(C[N+]23CCC(CC2)CC3)c1 [JB-8A] | – | did not detect | –
C[N+]1(Cc2cccs2)CCOCC1 [JB-12-2] | – | – | approximately 12%
COC(=O)C1=CCCN(Cc2cccs2)C1 [JB-13-1] | – | activated only GαoA | –
C[N+]1(Cc2ccc(Cl)s2)CC=CCC1 (stereo not drawn) [PN-152, 1-[(5-chlorothiophen-2-yl)methyl]-1-methyl-1,2,3,6-tetrahydropyridin-1-ium] | – | did not detect | –

Source: PMC11053168, “Agonist-selective activation of individual G-proteins by muscarinic receptors” (Scientific Reports, 2024)
